US6706722B2, “Heteroaryl derivatives and their use as medicaments” (Zentaris AG, priority 2000, dated 2004)

Experiments:
[1] = test system: ovary adenocarcinoma line SKOV-3 (ATCC HTB77); experiment: XTT proliferation test (cellular dehydrogenase activity), SKOV-3; assay type: cell-based; conditions: Homo sapiens, SK-OV-3, in-vitro cytotoxicity, values determined from 5 substance concentrations, 45 h incubation
Experimental: (§1) In a proliferation test, the antiproliferative activity of the substance D-43411 was examined using established tumor cell lines. The Cellular Dehydrogenation activity is determined in the test, which enables determination of the vitality of the cell and, indirectly, the cell count. The cell lines used are the human cervical carcinoma cell lines KB/HeLa (ATCC/CCL17), the murine lymphocyte leukemia L1210 (ATCC CCL-219), the human breast adenocarcinoma line MCF7/ATCC HTB22) and the ovary adenocarcinoma line SKOV-3 (ATCC HTB77). These are established cell lines which are very well characterized and were obtained from ATCC and cultured. XTT Test for Cellular Dehydrogenase Activity The adherently growing tumor cell lines HeLa/KB, SKOV-3 and MCF7 and the L1210 leukemia line, which grows in suspension, were cultivated under standard conditions in an incubator with gas inlet at 37° C., 5% CO2 and 95% atmospheric humidity. On Test Day 1, the adherent cells are detached using trypsine/EDTA and pelleted by centrifugation. […] The cell plates are then incubated in the incubator with gas inlet for a further 3 hours, and the optical density (OD490nm) is determined in a photometer. Using the OD490nm obtained, the inhibition is calculated in percent relative to the control. […]

[2] = test system: murine lymphocyte leukemia L1210 (ATCC CCL-219); experiment: XTT proliferation test (cellular dehydrogenase activity), L1210; assay type: cell-based; conditions: Mus musculus, in-vitro cytotoxicity, values determined from 5 substance concentrations, 45 h incubation
Experimental: as §1

[3] = test system: human cervical carcinoma cell lines KB/HeLa (ATCC/CCL17); experiment: XTT proliferation test (cellular dehydrogenase activity), KB/HeLa; assay type: cell-based; conditions: in-vitro cytotoxicity, values determined from 5 substance concentrations, 45 h incubation
Experimental: as §1

[4] = test system: human breast adenocarcinoma line MCF7 (ATCC HTB22); experiment: XTT proliferation test (cellular dehydrogenase activity), MCF7; assay type: cell-based; conditions: test period of 48 h
Experimental: as §1

Structure (SMILES): COc1cc(OC)cc(N2CCN(C(=O)c3c4ccccc4nc4ccccc34)CC2)c1 [D-43411, 1-(3,5-Dimethoxyphenyl)-4-(9-acridinyl-carbonyl)piperazine]
- IC50 [1]: < 0.3 ng/mL
- IC50 [2]: < 0.3 ng/mL
- IC50 [3]: < 0.3 ng/mL
- inhibition at 3160 µg/mL ([4]; at 3.16 mg/ml): 18%
- IC50 ([4]; in-vitro cytotoxicity, values determined from 5 substance concentrations): > 3.16 µg/mL
- melting point: 172 to 175 °C
